Measured values from US11584775B2, “C4-modified oleanolic acid derivatives for inhibition of IL-17 and other uses” (REATA PHARMACEUTICALS, INC., priority 2015, dated 2023).

Key:
human RORγ = molecular target: T1, human RORγ (Homo sapiens, UniProt P51449); experiment: RORγ assay (GAL4-RORγ hybrid luciferase reporter, inverse-agonist activity); assay type: cell-based; conditions: GAL4-RORγ hybrid reporter cells, 23 hours
T1 sequence (P51449 269-508 limits assumed): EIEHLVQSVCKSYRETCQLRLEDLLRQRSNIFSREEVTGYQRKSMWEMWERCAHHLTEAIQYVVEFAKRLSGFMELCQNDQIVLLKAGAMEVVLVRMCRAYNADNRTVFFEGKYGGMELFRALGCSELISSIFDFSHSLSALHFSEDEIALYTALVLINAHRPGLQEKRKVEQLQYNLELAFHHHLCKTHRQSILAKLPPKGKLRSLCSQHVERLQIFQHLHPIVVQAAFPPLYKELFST
From the text: C. RORγ Assay and Cell Viability
The RORγ assay system was purchased from Indigo Biosciences. This nuclear receptor assay utilizes a human cell line that has been engineered to express a hybrid form of the Human RAR-related Orphan Receptor Gamma (RORγ) at high levels. The N-terminal DNA binding domain (DBD) of the native RORγ receptor was substituted with the yeast GAL4-DBD to generate the GAL4-RORγ hybrid nuclear receptor. The reporter cell line is transfected with a plasmid that encodes the beetle luciferase gene under the control of the GAL4 upstream activating sequence (UAS). GAL4 binds to the UAS and increases transcription of downstream target genes. […] To assess the RORγ inverse-agonist activity of the test compounds, reporter cells were plated in white 96-well plates in triplicate and were treated with DMSO (vehicle) or test compound (concentration ranges of 0.4-200 nM or 2-1000 nM) at 37° C. with 5% CO2 in a humidified atmosphere for 23 hours. After this incubation, luciferin was added to the wells and luciferase activity was determined by measuring the luminescence signal using a BMG Pherastar microplate reader. Viability was determined using the Live Cell Multiplex Assay (Indigo Biosciences). Values from test compound samples were normalized to those from DMSO-treated samples. Data were analyzed using GraphPad Prism version 6.00 for Windows (GraphPad Software, La Jolla Calif. USA). A non-linear regression analysis with log (inhibitor) vs. normalized response using a variable slope was applied to fit the data and determine the IC50 values for inhibition of RORγ and cell viability.

hIL17 = experiment: IL-17 release from differentiated primary human T-cells (IL-17A HTRF assay); assay type: cell-based; conditions: inhibition of IL-17A levels; primary human CD4+ T cells differentiated into Th17 cells, 46-hour incubation
Method: D. IL-17 Release from Differentiated Primary Human T-Cells and Cell Viability
Primary human cryopreserved CD4+ T Cells (Lonza, donor #0000402103) were plated in Lymphocyte Growth Medium-3 (LGM-3, Lonza) according to the manufacturer's recommendations, and allowed to recover for approximately 3 hours at 37° C. with 5% CO2 in a humidified atmosphere. After the recovery step, cells were collected by centrifugation and re-plated in 96-well plates at a density of ˜140,000 cells per well in LGM-3 medium that contained DMSO (vehicle) or test compound (2-500 nM or 4-1000 nM concentration range). Triplicate wells were plated for each test condition. DMSO (final concentration ≤0.1%) was used as the vehicle. Immediately after plating, CD4+ T cells were activated by adding Dynabeads Human T-Activator CD3/CD28 (Life Technologies; bead-to-cell ratio of 1:2.5) and differentiated into Th17 cells by adding a mixture of the following cytokines: transforming growth factor-β (TGF-β, 5 ng/mL), IL-6 (20 ng/mL), IL-23 (20 ng/mL), and […] (10 ng/mL). Undifferentiated control cells received only cytokine IL-2 (50 ng/mL). All human recombinant cytokines were purchased from R&D Systems. Following a 46-hour incubation at 37° C. with 5% CO2 in a humidified atmosphere, the plates were centrifuged for 3 minutes at 250×g, and half of the supernatant was transferred to a new plate to be used in the IL-17A assay (see below). Cell viability was assessed in the original plate using the CyQuant Direct Assay (Life Technologies). CyQuant values from test compound samples were normalized to those from DMSO-treated samples. The concentration of IL-17A in the supernatant was measured using the Homogeneous Time-Resolved Fluorescence (HTRF) assay (Cisbio Bioassays) according to the manufacturer's protocol. The assay was performed at room temperature in low volume, solid white 384-well plates (Greiner Bio-One). Samples and standards (serially-diluted human recombinant IL-17A (0 to 5,000 pg/mL concentration range; Cisbio Bioassays) were incubated with the anti-human IL-17A antibody conjugate for 16 hours and fluorescence was measured using a Pherastar FS microplate reader (BMG Labtech) in the HTRF mode (excitation at 337 nm and emission at 665 nm and 620 nm). IL-17A concentrations were assessed in duplicate aliquots of supernatant from each well resulting in a total of six readings per test condition. The 665 nm/620 nm signal ratio was calculated and the concentration of IL-17A in each sample was determined by interpolation from the standard curve. IL-17A values from test compound samples were normalized to those from DMSO-treated samples. Data were analyzed using GraphPad Prism version 6.00 for Windows (GraphPad Software, La Jolla Calif. USA). A non-linear regression analysis with log (inhibitor) vs. normalized response using a variable slope was applied to fit the data and determine the IC50 values for inhibition of IL-17A levels and cell viability.

NRF2 = experiment: AREc32 luciferase reporter assay; assay type: cell-based, human; conditions: EC2×: concentration required to increase GST ARE Luciferase reporter activity by 2-fold; AREc32 cells, 19 hours
From the text: B. AREc32 Luciferase Reporter Assay
The AREc32 luciferase reporter assay allows for quantitative assessment of the endogenous activity of the Nrf2 transcription factor in cultured mammalian cells. AREc32 cells are derived from MCF-7 human breast carcinoma cells that were stably transfected with a reporter construct that contains the firefly luciferase gene located downstream of eight copies of the rat GSTA2 antioxidant response element (ARE) sequence (Wang et al., 2006; CXR Biosciences). Active NRF2 binds to the ARE sequences and increases expression of the firefly luciferase gene. To assess the NRF2-activating potential of the test compounds, AREc32 cells were plated in black 96-well plates at a density of 20,000 cells per well in triplicate in DMEM+10% FBS+0.8 mg/mL Geneticin and incubated at 37° C. with 5% CO2 in a humidified atmosphere. The next day, cells were treated with DMSO (vehicle) or test compound (concentration ranges of 0.4-200 nM or 2-1000 nM) for 19 hours. Luciferase activity was determined using the ONE-Glo Luciferase assay (Promega). The luminescence signal was measured on a BMG Pherastar microplate reader. The mean luminescence value from test compound-treated wells was normalized to that from DMSO-treated wells and was represented as fold-induction. Data were analyzed using GraphPad Prism version 6.00 for Windows, GraphPad Software, La Jolla Calif. USA. A non-linear regression curve with log (agonist) vs. response using a variable slope was used to fit the data. Where applicable, a maximum threshold value of 50-fold over DMSO was set. EC2× values were interpolated from the curve. EC2× corresponds to the concentration of test compound required to increase GST ARE Luciferase reporter activity by 2-fold.

[1] = test system: IFNγ-induced Nitric Oxide production; experiment: Nitric oxide production assay in RAW 264.7 mouse macrophages; assay type: cell-based; conditions: RAW264.7, suppression of IFNγ-induced NO production normalized to cell viability (WST-1), RAW 264.7, 24 hours IFNγ
Method: A. Nitric Oxide Production Assay and Cell Viability
RAW 264.7 mouse macrophages were plated in 96-well plates at a density of 30,000 cells per well in triplicate in RPMI 1640+0.5% FBS and incubated at 37° C. with 5% CO2 in a humidified atmosphere. The next day, cells were pre-treated with DMSO (vehicle) or test compound (concentration ranges of 0.4-200 nM or 2-1000 nM) for 2 hours and then treated with recombinant mouse IFNγ (R&D Systems) for 24 hours. Nitric oxide concentration in media was determined using the Griess reagent system (Promega). Cell viability was determined using WST-1 reagent (Roche). Values from test compound samples were normalized to those from DMSO/IFNγ-treated samples. IC50 values were determined based on the suppression of IFNγ-induced Nitric Oxide production normalized to cell viability.

IC50 (human RORγ) [µM]	IC50 (hIL17) [µM]	Structure (SMILES)	EC2x: concentration giving 2-fold induction of ARE luciferase reporter (NRF2) [nM]	IC50 [1] [µM]
0.419	0.081	COC(=O)[C@]12CCC(C)(C)C[C@H]1[C@H]1C(=O)C=C3[C@@]4(C)C=C(C#N)C(=O)[C@@](C)(NC(C)=O)[C@@H]4CC[C@@]3(C)[C@]1(C)CC2 [Compound T12, methyl (4aS,6aR,6bS,8aR,9S,12aS,14aR,14bS)-9-acetamido-11-cyano-2,2,6a,6b,9,12a-hexamethyl-10,14-dioxo-1,3,4,5,6,6a,6b,7,8,8a,9,10,12a,14,14a,14b-hexadecahydropicene-4a(2H)-carboxylate]	>1000	> 1
0.413	0.068	CNC(=O)[C@]1(C)C(=O)C(C#N)=C[C@]2(C)C3=CC(=O)[C@]45OC(=O)[C@@]6(CCC(C)(C)C[C@H]64)CC[C@@]5(C)[C@]3(C)CC[C@@H]12 [Compound T35, (4S,4aR,6aR,6bS,8aS,12aR,12bS,14bS)-2-cyano-N,4,6a,6b, 11,11,14b-heptamethyl-3,13,16-trioxo-4,4a,5,6,6a,6b,7,8,10,11,12,12a,13,14b-tetradecahydro-3H,9H-12b,8a-(epoxymethano)picene-4-carboxamide]	>1000	> 1
1.04	0.011	CC1(C)CC[C@@]23CC[C@@]4(C)[C@]5(C)CC[C@@H]6[C@@](C)(C5=CC(=O)[C@]4(OC2=O)[C@@H]3C1)[C@H]1O[C@@]1(C#N)C(=O)[C@@]6(C)O [Compound T50, (1aR,3S,3aR,5aR,5bS,7aS,11aR,11bS,13bS,13cR)-3-hydroxy-3,5a,5b,10,10,13b-hexamethyl-2,12,15-trioxo-3,3a,4,5,5a,6,7,9,10,11,11a,12,13b,13c-tetradecahydro-2H, 8H-11b,7a-(epoxymethano)piceno[1,2-b]oxirene-1a(5bH)-carbonitrile]	162	0.0654
0.256	0.05	CC1(C)CC[C@]2(C(=O)NCC(F)(F)F)CC[C@]3(C)[C@H](C(=O)C=C4[C@@]5(C)C=C(C#N)C(=O)[C@@](C)(CO)[C@@H]5CC[C@]43C)[C@@H]2C1 [Compound T22, (4aS,6aR,6bS,8aR,9R,12aS,14aR,14bS)-11-cyano-9-(hydroxymethyl)-2,2,6a,6b,9,12a-hexamethyl-10,14-dioxo-N-(2,2,2-trifluoroethyl)-1,3,4,5,6,6a,6b,7,8,8a,9,10,12a,14,14a,14b-hexadecahydropicene-4a(2H)-carboxamide]	103	0.0135
0.139	0.046	COC(=O)[C@]12CCC(C)(C)C[C@H]1[C@H]1C(=O)C=C3[C@@]4(C)C=C(C#N)C(=O)[C@@](C)(C(=O)N(C)C)[C@@H]4CC[C@@]3(C)[C@]1(C)CC2 [Compound T14]	>1000	0.165
0.463	0.067	CC1(C)CC[C@]2(NC(=O)C(C)(F)F)CC[C@]3(C)[C@H](C(=O)C=C4[C@@]5(C)C=C(C#N)C(=O)[C@@](C)(CO)[C@@H]5CC[C@]43C)[C@@H]2C1 [Compound T28, N-((4aS,6aR,6bS,8aR,9R,12aS,14aR,14bS)-11-cyano-9-(hydroxymethyl)-2,2,6a,6b,9,12a-hexamethyl-10,14-dioxo-1,3,4,5,6,6a,6b,7,8,8a,9,10,12a,14,14a,14b-hexadecahydropicen-4a(2H)-yl)-2,2-difluoropropanamide]	117	0.0211
0.161	0.049	CNC(=O)[C@]1(C)C(=O)C(C#N)=C[C@]2(C)C3=CC(=O)[C@@H]4[C@@H]5CC(C)(C)CC[C@]5(C(=O)OC)CC[C@@]4(C)[C@]3(C)CC[C@@H]12 [Compound T13, methyl (4aS,6aR,6bS,8aR,9S,12aS,14aR,14bS)-11-cyano-2,2,6a,6b,9,12a-hexamethyl-9-(methylcarbamoyl)-10,14-dioxo-1,3,4,5,6,6a,6b,7,8,8a,9,10,12a,14,14a,14b-hexadecahydropicene-4a(2H)-carboxylate]	567	0.295
1.69	0.139	CC1(C)CC[C@]2(NC(=O)C(C)(F)F)CC[C@]3(C)[C@H](C(=O)C=C4[C@@]5(C)[C@H]6O[C@@]6(C#N)C(=O)[C@@](C)(O)[C@@H]5CC[C@]43C)[C@@H]2C1 [Compound T51, N-((1aR,3S,3aR,5aS,5bR,7aS,11aS,11bR,13bS,13cR)-1a-cyano-3-hydroxy-3,5a,5b,10,10,13b-hexamethyl-2,12-dioxo-1a,3,3a,4,5,5a,5b,6,7,8,9,10,11,11a,11b,12,13b,13c-octadecahydropiceno[1,2-b]oxiren-7a(2H)-yl)-2,2-difluoropropanamide]	840	0.119
